Data published in patent publication US20240254118A1, “PRMT5 INHIBITORS AND USES THEREOF” (Gilead Sciences, Inc., priority 2022, published 2024).

Columns and labels:
[1] = tested on: HCT116 MTAP-deleted cells; experiment: Cell viability assay (CellTiter-Glo, 7 days), HCT116 MTAP-deleted; conditions: Homo sapiens, HCT-116, 168 h
[2] = tested on: SDMA signal (PRMT5 inhibition) in HCT116 MTAP-deleted cells; experiment: Symmetric di-methyl arginine image-based high content screen assay (SDMA assay), HCT116 MTAP-deleted; type: cell-based; conditions: SDMA assay; for EC50: Homo sapiens, HCT-116, 72 h, 3 days of treatment, cell line not given, taken as HCT116 MTAP-deleted, read-out: EC50 (SDMA assay); for EC50 selectivity (SDMA assay): taken as HCT116 WT versus MTAP-deleted
Procedure, shortened: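 Read-out: per-cell mean SDMA immunofluorescence (Alexa Fluor 488 secondary), cells segmented by DAPI on a high-content imager. Compound exposure in HCT116 MTAP-deleted cells lasted until fixation on Day 3; overnight 4° C primary anti-SDMA antibody staining.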

Structure (SMILES)	EC50 [2]	EC50 selectivity (SDMA assay) [2]	CC50 [1]
CN(C(=O)C(C)(C)C)N(Cc1ccc(C(F)(F)F)cn1)C(=O)c1ccc2nc(N)c3cnn(C)c3c2c1 [Example 119, 4-amino-N′,1-dimethyl-N′-pivaloyl-N-((5-(trifluoromethyl)pyridin-2-yl)methyl)-1H-pyrazolo[4,3-c]quinoline-8-carbohydrazide]	< 1 nM	156	< 100 nM
CN(C(=O)C1CC1)N(Cc1ccc(F)cc1F)C(=O)c1ccc2nc(N)c3cnn(C)c3c2c1 [Example 122, 4-amino-N′-(cyclopropanecarbonyl)-N-(2,4-difluorobenzyl)-N′,1-dimethyl-1H-pyrazolo[4,3-c]quinoline-8-carbohydrazide]	< 1 nM	261	< 100 nM
CN(C(=O)N1CC2CC2C1)N(Cc1ccc(C(F)(F)F)cn1)C(=O)c1ccc2nc(N)c3cnn(C)c3c2c1 (stereo not drawn) [Example 127, 4-amino-N′-(3-azabicyclo[3.1.0]hexane-3-carbonyl)-N′,1-dimethyl-N-((5-(trifluoromethyl)pyridin-2-yl)methyl)-1H-pyrazolo[4,3-c]quinoline-8-carbohydrazide]	1 to 5 nM	228	< 100 nM
CN(C(=O)N1CC2CC1C2)N(Cc1ccc(C(F)(F)F)cn1)C(=O)c1ccc2nc(N)c3cnn(C)c3c2c1 [Example 128, 4-amino-N′-(2-azabicyclo[2.1.1]hexane-2-carbonyl)-N′,1-dimethyl-N-((5-(trifluoromethyl)pyridin-2-yl)methyl)-1H-pyrazolo[4,3-c]quinoline-8-carbohydrazide]	< 1 nM	131	< 100 nM
Cn1cc(-c2ccc(CN(C(=O)c3ccc4nc(N)c5cnn(C)c5c4c3)N3CCCCC3=O)nc2)cn1 [Example 130, 4-amino-1-methyl-N-((5-(1-methyl-1H-pyrazol-4-yl)pyridin-2-yl)methyl)-N-(2-oxopiperidin-1-yl)-1H-pyrazolo[4,3-c]quinoline-8-carboxamide]	1 to 5 nM	34	< 100 nM
Nc1nc2cc(F)c(C(=O)N3CCCCN3c3ccc(C(F)(F)F)cn3)cc2c2cscc12 [Example 131, (4-amino-7-fluoro-thieno[3,4-c]quinolin-8-yl)-[2-[5-(trifluoromethyl)-2-pyridyl]hexahydropyridazin-1-yl]methanone]	> 5 nM	279	> 1000 nM
Nc1nc2cc(F)c(C(=O)N3CCCN3c3ccc(C(F)(F)F)cn3)cc2c2cscc12 [Example 132, (4-amino-7-fluoro-thieno[3,4-c]quinolin-8-yl)-[2-[5-(trifluoromethyl)-2-pyridyl]pyrazolidin-1-yl]methanone]	> 5 nM	3193	> 1000 nM
Cn1ncc2c(N)nc3ccc(C(=O)N(Cc4ccc(C(F)(F)F)cn4)N4CCOC4=O)cc3c21 [Example 133, 4-amino-1-methyl-N-(2-oxooxazolidin-3-yl)-N-((5-(trifluoromethyl)pyridin-2-yl)methyl)-1H-pyrazolo[4,3-c]quinoline-8-carboxamide]	< 1 nM	92	< 100 nM
CN1CCN(N(Cc2ccc(C(F)(F)F)cn2)C(=O)c2cc3c(cc2F)nc(N)c2cnn(C)c23)C1=O [Example 134, 4-amino-7-fluoro-1-methyl-N-(3-methyl-2-oxoimidazolidin-1-yl)-N-((5-(trifluoromethyl)pyridin-2-yl)methyl)-1H-pyrazolo[4,3-c]quinoline-8-carboxamide]	1 to 5 nM	18	< 100 nM
Cn1ncc2c(N)nc3ccc(C(=O)N(Cc4nc(C(F)(F)F)cs4)N4CCCOC4=O)cc3c21 [Example 135, 4-amino-1-methyl-N-(2-oxo-1,3-oxazinan-3-yl)-N-((4-(trifluoromethyl)thiazol-2-yl)methyl)-1H-pyrazolo[4,3-c]quinoline-8-carboxamide]	1 to 5 nM	495	100 to 1000 nM
Cn1ncc2c(N)nc3ccc(C(=O)N(Cc4csc(C(F)(F)F)n4)N4CCCOC4=O)cc3c21 [Example 136, 4-amino-1-methyl-N-(2-oxo-1,3-oxazinan-3-yl)-N-((2-(trifluoromethyl)thiazol-4-yl)methyl)-1H-pyrazolo[4,3-c]quinoline-8-carboxamide]	1 to 5 nM	724	100 to 1000 nM

More lines, main results first:

EC50 [2]	EC50 selectivity (SDMA assay) [2]	Structure (SMILES)	CC50 [1]
< 1 nM	542	CC(C)C(=O)N(C)N(Cc1ccc(C(F)(F)F)cn1)C(=O)c1ccc2nc(N)c3cnn(C)c3c2c1 [Example 120, 4-amino-N′-isobutyryl-N′,1-dimethyl-N-((5-(trifluoromethyl)pyridin-2-yl)methyl)-1H-pyrazolo[4,3-c]quinoline-8-carbohydrazide]	< 100 nM
< 1 nM	106	CN(C(=O)C(C)(C)F)N(Cc1ccc(C(F)(F)F)cn1)C(=O)c1ccc2nc(N)c3cnn(C)c3c2c1 [Example 121, 4-amino-N′-(2-fluoro-2-methylpropanoyl)-N′,1-dimethyl-N-((5-(trifluoromethyl)pyridin-2-yl)methyl)-1H-pyrazolo[4,3-c]quinoline-8-carbohydrazide]	< 100 nM
< 1 nM	39	Cn1ncc2c(N)nc3ccc(C(=O)N(Cc4cn5cc(Cl)ccc5n4)N4CCCC4=O)cc3c21 [Example 123, 4-Amino-N-[(6-chloroimidazo[1,2-a]pyridin-2-yl)methyl]-1-methyl-N-(2-oxopyrrolidin-1-yl)pyrazolo[4,3-c]quinoline-8-carboxamide]	< 100 nM
1 to 5 nM	60	CN1CCN(N(Cc2cn3ccc(Cl)cc3n2)C(=O)c2ccc3nc(N)c4cnn(C)c4c3c2)C1=O [Example 125, 4-Amino-N-[(7-chloroimidazo[1,2-a]pyridin-2-yl)methyl]-1-methyl-N-(3-methyl-2-oxo-imidazolidin-1-yl)pyrazolo[4,3-c]quinoline-8-carboxamide]	< 100 nM
< 1 nM	45	CN(C(=O)N1CCC1)N(Cc1ccc(C(F)(F)F)cn1)C(=O)c1ccc2nc(N)c3cnn(C)c3c2c1 [Example 126, 4-amino-N′-(azetidine-1-carbonyl)-N′,1-dimethyl-N-((5-(trifluoromethyl)pyridin-2-yl)methyl)-1H-pyrazolo[4,3-c]quinoline-8-carbohydrazide]	< 100 nM
< 1 nM	11	CN(c1ncccn1)N(Cc1cn2cc(Cl)ccc2n1)C(=O)c1ccc2nc(N)c3cnn(C)c3c2c1 [Example 129, 4-amino-N-[(6-chloroimidazo[1,2-a]pyridin-2-yl)methyl]-N′,1-dimethyl-N′-pyrimidin-2-yl-pyrazolo[4,3-c]quinoline-8-carbohydrazide]	< 100 nM
1 to 5 nM	159	CN(C(=O)OC(C)(C)C)N(Cc1ccc(C(F)(F)F)cn1)C(=O)c1ccc2nc(N)c3cnn(C)c3c2c1 [Example 137, tert-butyl N-[(4-amino-1-methyl-pyrazolo[4,3-c]quinoline-8-carbonyl)-[[5-(trifluoromethyl)-2-pyridyl]methyl]amino]-N-methyl-carbamate]	< 100 nM
